Experimental data: US20260022142A1, “MACROCYCLIC IMMUNOMODULATORS” (Bristol-Myers Squibb Company, priority 2022, published 2026)
Bridge positions count the residues as written; N and C are the ends. Square brackets hold non-standard residues; d marks the D form. Peptide text beside a SMILES is read from it. * marks the point of attachment. Tyr(3,5-F2) = N[C@@H](Cc1cc(F)c(O)c(F)c1)C(=O)O; Phe(4-CONH2) = NC(=O)c1ccc(C[C@H](N)C(=O)O)cc1; Bip = N[C@@H](Cc1ccc(-c2ccccc2)cc1)C(=O)O; Phe(3-OMe) = COc1cccc(C[C@H](N)C(=O)O)c1; Phe(4-CN) = N#Cc1ccc(C[C@H](N)C(=O)O)cc1; Phe(3-F) = N[C@@H](Cc1cccc(F)c1)C(=O)O; Phe(3-Me) = Cc1cccc(C[C@H](N)C(=O)O)c1; Phe(4-Me) = Cc1ccc(C[C@H](N)C(=O)O)cc1; Phe(2-F) = N[C@@H](Cc1ccccc1F)C(=O)O; Phe(2-Me) = Cc1ccccc1C[C@H](N)C(=O)O; Val(3-OH) = CC(C)(O)[C@H](N)C(=O)O; 4Pal = N[C@@H](Cc1ccncc1)C(=O)O; 2Thi = N[C@@H](Cc1cccs1)C(=O)O; Cha = N[C@@H](CC1CCCCC1)C(=O)O; Gly(cPr) = N[C@H](C(=O)O)C1CC1; Phg = N[C@H](C(=O)O)c1ccccc1; Carboxymethyl = O=C(O)C*; Orn = NCCC[C@H](N)C(=O)O; Aun = NCCCCCCCCCCC(=O)O; Dab = NCC[C@H](N)C(=O)O

Biological target: T1, PD-1/PD-L1 interaction (PE-labeled human PD-L1-Ig binding to Jurkat cell line over-expressing human PD-1) (Homo sapiens, UniProt Q15116)
T1 construct: expressed in transfected cells; host or cells: Jurkat
Assay: Jurkat-PD-1 Cell Binding High-Content Screening Assay (CBA)
Type: cell-based
Details: Jurkat cell line over-expressing human PD-1; PE-labeled PD-L1-Ig 20 nM final; read-out: Jurkat hPD1-PDL1 IC50
Procedure, shortened: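 First, compound is added to PD-1-expressing Jurkat cells in serum-containing DMEM and left 2 h at 37° C. Next, PE-conjugated PD-L1-Ig is introduced at 20 nM final concentration for 1 hour. Finally, cells are fixed in 4% paraformaldehyde with Hoechst 33342, washed and imaged.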

T1 sequence (Q15116 25-288): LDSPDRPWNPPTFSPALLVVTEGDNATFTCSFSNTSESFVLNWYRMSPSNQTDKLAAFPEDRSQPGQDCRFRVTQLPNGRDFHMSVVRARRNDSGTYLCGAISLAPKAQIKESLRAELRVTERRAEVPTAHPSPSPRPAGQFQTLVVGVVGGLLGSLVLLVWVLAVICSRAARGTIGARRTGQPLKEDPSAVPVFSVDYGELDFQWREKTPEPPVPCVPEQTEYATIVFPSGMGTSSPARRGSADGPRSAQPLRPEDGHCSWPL

SMILES | IC50 [µM]
Cc1cccc(C[C@@H]2NC(=O)[C@H](CC(=O)O)NC(=O)[C@H](Cc3ccc(OCC(=O)O)cc3)NC(=O)[C@H](Cc3ccc(C#N)cc3)NC(=O)CSC[C@@H](C(=O)N[C@@H](CCN)C(=O)NCCCCCCCCCCC(=O)O)NC(=O)[C@H](CO)NC(=O)[C@H](C(C)(C)O)NC(=O)[C@H](CC3CCCCC3)NC(=O)[C@H](CCN)NC(=O)[C@@H](CC(C)C)NC(=O)[C@H](CCCN)NC(=O)[C@H](Cc3ccc(OCC(=O)O)cc3)NC(=O)[C@H](Cc3ccc(-c4ccccc4)cc3)NC(=O)[C@H](Cc3ccc(OCC(=O)O)cc3)NC2=O)c1 [Compound 2183] ({CH2CO}-[Phe(4-CN)]Y(Carboxymethyl)D[Phe(3-Me)]Y(Carboxymethyl)[Bip]Y(Carboxymethyl)[Orn][dL][Dab][Cha][Val(3-OH)]SC[Dab][Aun]-OH; thioether N-14) | 0.0133
Cc1cccc(C[C@@H]2NC(=O)[C@H](CC(=O)O)NC(=O)[C@H](Cc3ccc(OCC(=O)O)cc3)NC(=O)[C@H](Cc3ccncc3)NC(=O)CSC[C@@H](C(=O)N[C@@H](CCN)C(=O)NCCCCCCCCCCC(=O)O)NC(=O)[C@H](CO)NC(=O)[C@H](C(C)(C)O)NC(=O)[C@H](CC3CCCCC3)NC(=O)[C@H](CCN)NC(=O)[C@@H](CC(C)C)NC(=O)[C@H](CCCN)NC(=O)[C@H](Cc3ccc(OCC(=O)O)cc3)NC(=O)[C@H](Cc3ccc(-c4ccccc4)cc3)NC(=O)[C@H](Cc3ccccc3F)NC2=O)c1 [Compound 2184] ({CH2CO}-[4Pal]Y(Carboxymethyl)D[Phe(3-Me)][Phe(2-F)][Bip]Y(Carboxymethyl)[Orn][dL][Dab][Cha][Val(3-OH)]SC[Dab][Aun]-OH; thioether N-14) | 0.0103
Cc1cccc(C[C@@H]2NC(=O)[C@H](CC(=O)O)NC(=O)[C@H](Cc3ccc(OCC(=O)O)cc3)NC(=O)[C@H](Cc3ccncc3)NC(=O)CSC[C@@H](C(=O)N[C@@H](CCN)C(=O)NCCCCCCCCCCC(=O)O)NC(=O)[C@H](CO)NC(=O)[C@H](C(C)(C)O)NC(=O)[C@H](CC3CCCCC3)NC(=O)[C@H](CCN)NC(=O)[C@@H](CC(C)C)NC(=O)[C@H](CCCN)NC(=O)[C@H](Cc3ccc(OCC(=O)O)cc3)NC(=O)[C@H](Cc3ccc(-c4ccccc4)cc3)NC(=O)[C@H](Cc3cc(F)c(O)c(F)c3)NC2=O)c1 [Compound 2185] ({CH2CO}-[4Pal]Y(Carboxymethyl)D[Phe(3-Me)][Tyr(3,5-F2)][Bip]Y(Carboxymethyl)[Orn][dL][Dab][Cha][Val(3-OH)]SC[Dab][Aun]-OH; thioether N-14) | 0.0096
COc1cccc(C[C@@H]2NC(=O)[C@H](Cc3cccc(C)c3)NC(=O)[C@H](CC(=O)O)NC(=O)[C@H](Cc3ccc(OCC(=O)O)cc3)NC(=O)[C@H](Cc3ccncc3)NC(=O)CSC[C@@H](C(=O)N[C@@H](CCN)C(=O)NCCCCCCCCCCC(=O)O)NC(=O)[C@H](CO)NC(=O)[C@H](C(C)(C)O)NC(=O)[C@H](CC3CCCCC3)NC(=O)[C@H](CCN)NC(=O)[C@@H](CC(C)C)NC(=O)[C@H](CCCN)NC(=O)[C@H](Cc3ccc(OCC(=O)O)cc3)NC(=O)[C@H](Cc3ccc(-c4ccccc4)cc3)NC2=O)c1 [Compound 2186] ({CH2CO}-[4Pal]Y(Carboxymethyl)D[Phe(3-Me)][Phe(3-OMe)][Bip]Y(Carboxymethyl)[Orn][dL][Dab][Cha][Val(3-OH)]SC[Dab][Aun]-OH; thioether N-14) | 0.014
Cc1cccc(C[C@@H]2NC(=O)[C@H](CC(=O)O)NC(=O)[C@H](Cc3ccc(OCC(=O)O)cc3)NC(=O)[C@H](Cc3ccncc3)NC(=O)CSC[C@@H](C(=O)N[C@@H](CCN)C(=O)NCCCCCCCCCCC(=O)O)NC(=O)[C@H](CO)NC(=O)[C@H](C(C)(C)O)NC(=O)[C@H](CC3CCCCC3)NC(=O)[C@H](CCN)NC(=O)[C@@H](CC(C)C)NC(=O)[C@H](CCCN)NC(=O)[C@H](Cc3ccc(OCC(=O)O)cc3)NC(=O)[C@H](Cc3ccc(-c4ccccc4)cc3)NC(=O)[C@H](C(C)(C)O)NC2=O)c1 [Compound 2187] ({CH2CO}-[4Pal]Y(Carboxymethyl)D[Phe(3-Me)][Val(3-OH)][Bip]Y(Carboxymethyl)[Orn][dL][Dab][Cha][Val(3-OH)]SC[Dab][Aun]-OH; thioether N-14) | 0.0313
Cc1cccc(C[C@@H]2NC(=O)[C@H](CC(=O)O)NC(=O)[C@H](Cc3ccc(OCC(=O)O)cc3)NC(=O)[C@H](Cc3ccncc3)NC(=O)CSC[C@@H](C(=O)N[C@@H](CCN)C(=O)NCCCCCCCCCCC(=O)O)NC(=O)[C@H](CO)NC(=O)[C@H](C(C)(C)O)NC(=O)[C@H](CC3CCCCC3)NC(=O)[C@H](CCN)NC(=O)[C@@H](CC(C)C)NC(=O)[C@H](CCCN)NC(=O)[C@H](Cc3ccc(OCC(=O)O)cc3)NC(=O)[C@H](Cc3ccc(-c4ccccc4)cc3)NC(=O)[C@H](Cc3cccs3)NC2=O)c1 [Compound 2188] ({CH2CO}-[4Pal]Y(Carboxymethyl)D[Phe(3-Me)][2Thi][Bip]Y(Carboxymethyl)[Orn][dL][Dab][Cha][Val(3-OH)]SC[Dab][Aun]-OH; thioether N-14) | 0.0094
Cc1cccc(C[C@@H]2NC(=O)[C@H](CC(=O)O)NC(=O)[C@H](Cc3ccc(OCC(=O)O)cc3)NC(=O)[C@H](Cc3ccncc3)NC(=O)CSC[C@@H](C(=O)N[C@@H](CCN)C(=O)NCCCCCCCCCCC(=O)O)NC(=O)[C@H](CO)NC(=O)[C@H](C(C)(C)O)NC(=O)[C@H](CC3CCCCC3)NC(=O)[C@H](CCN)NC(=O)[C@@H](CC(C)C)NC(=O)[C@H](CCCN)NC(=O)[C@H](Cc3ccc(OCC(=O)O)cc3)NC(=O)[C@H](Cc3ccc(-c4ccccc4)cc3)NC(=O)[C@H](C3CC3)NC2=O)c1 [Compound 2189] ({CH2CO}-[4Pal]Y(Carboxymethyl)D[Phe(3-Me)][Gly(cPr)][Bip]Y(Carboxymethyl)[Orn][dL][Dab][Cha][Val(3-OH)]SC[Dab][Aun]-OH; thioether N-14) | 0.0182
Cc1ccc(C[C@@H]2NC(=O)[C@H](Cc3cccc(C)c3)NC(=O)[C@H](CC(=O)O)NC(=O)[C@H](Cc3ccc(OCC(=O)O)cc3)NC(=O)[C@H](Cc3ccncc3)NC(=O)CSC[C@@H](C(=O)N[C@@H](CCN)C(=O)NCCCCCCCCCCC(=O)O)NC(=O)[C@H](CO)NC(=O)[C@H](C(C)(C)O)NC(=O)[C@H](CC3CCCCC3)NC(=O)[C@H](CCN)NC(=O)[C@@H](CC(C)C)NC(=O)[C@H](CCCN)NC(=O)[C@H](Cc3ccc(OCC(=O)O)cc3)NC(=O)[C@H](Cc3ccc(-c4ccccc4)cc3)NC2=O)cc1 [Compound 2190] ({CH2CO}-[4Pal]Y(Carboxymethyl)D[Phe(3-Me)][Phe(4-Me)][Bip]Y(Carboxymethyl)[Orn][dL][Dab][Cha][Val(3-OH)]SC[Dab][Aun]-OH; thioether N-14) | 0.0196
Cc1cccc(C[C@@H]2NC(=O)[C@H](CC(=O)O)NC(=O)[C@H](Cc3ccc(OCC(=O)O)cc3)NC(=O)[C@H](Cc3ccncc3)NC(=O)CSC[C@@H](C(=O)N[C@@H](CCN)C(=O)NCCCCCCCCCCC(=O)O)NC(=O)[C@H](CO)NC(=O)[C@H](C(C)(C)O)NC(=O)[C@H](CC3CCCCC3)NC(=O)[C@H](CCN)NC(=O)[C@@H](CC(C)C)NC(=O)[C@H](CCCN)NC(=O)[C@H](Cc3ccc(OCC(=O)O)cc3)NC(=O)[C@H](Cc3ccc(-c4ccccc4)cc3)NC(=O)[C@H](c3ccccc3)NC2=O)c1 [Compound 2191] ({CH2CO}-[4Pal]Y(Carboxymethyl)D[Phe(3-Me)][Phg][Bip]Y(Carboxymethyl)[Orn][dL][Dab][Cha][Val(3-OH)]SC[Dab][Aun]-OH; thioether N-14) | 0.02
Cc1cccc(C[C@@H]2NC(=O)[C@H](CC(=O)O)NC(=O)[C@H](Cc3ccc(OCC(=O)O)cc3)NC(=O)[C@H](Cc3ccncc3)NC(=O)CSC[C@@H](C(=O)N[C@@H](CCN)C(=O)NCCCCCCCCCCC(=O)O)NC(=O)[C@H](CO)NC(=O)[C@H](C(C)(C)O)NC(=O)[C@H](CC3CCCCC3)NC(=O)[C@H](CCN)NC(=O)[C@@H](CC(C)C)NC(=O)[C@H](CCCN)NC(=O)[C@H](Cc3ccc(OCC(=O)O)cc3)NC(=O)[C@H](Cc3ccc(-c4ccccc4)cc3)NC(=O)[C@H](Cc3ccc(C(N)=O)cc3)NC2=O)c1 [Compound 2192] ({CH2CO}-[4Pal]Y(Carboxymethyl)D[Phe(3-Me)][Phe(4-CONH2)][Bip]Y(Carboxymethyl)[Orn][dL][Dab][Cha][Val(3-OH)]SC[Dab][Aun]-OH; thioether N-14) | 0.0077
Cc1cccc(C[C@@H]2NC(=O)[C@H](CC(=O)O)NC(=O)[C@H](Cc3ccc(OCC(=O)O)cc3)NC(=O)[C@H](Cc3ccncc3)NC(=O)CSC[C@@H](C(=O)N[C@@H](CCN)C(=O)NCCCCCCCCCCC(=O)O)NC(=O)[C@H](CO)NC(=O)[C@H](C(C)(C)O)NC(=O)[C@H](CC3CCCCC3)NC(=O)[C@H](CCN)NC(=O)[C@@H](CC(C)C)NC(=O)[C@H](CCCN)NC(=O)[C@H](Cc3ccc(OCC(=O)O)cc3)NC(=O)[C@H](Cc3ccc(-c4ccccc4)cc3)NC(=O)[C@H](Cc3ccccc3C)NC2=O)c1 [Compound 2193] ({CH2CO}-[4Pal]Y(Carboxymethyl)D[Phe(3-Me)][Phe(2-Me)][Bip]Y(Carboxymethyl)[Orn][dL][Dab][Cha][Val(3-OH)]SC[Dab][Aun]-OH; thioether N-14) | 0.0217
Cc1cccc(C[C@@H]2NC(=O)[C@H](CC(=O)O)NC(=O)[C@H](Cc3ccc(OCC(=O)O)cc3)NC(=O)[C@H](Cc3ccncc3)NC(=O)CSC[C@@H](C(=O)N[C@@H](CCN)C(=O)NCCCCCCCCCCC(=O)O)NC(=O)[C@H](CO)NC(=O)[C@H](C(C)(C)O)NC(=O)[C@H](CC3CCCCC3)NC(=O)[C@H](CCN)NC(=O)[C@@H](CC(C)C)NC(=O)[C@H](CCCN)NC(=O)[C@H](Cc3ccc(OCC(=O)O)cc3)NC(=O)[C@H](Cc3ccc(-c4ccccc4)cc3)NC(=O)[C@H](Cc3cccc(F)c3)NC2=O)c1 [Compound 2194] ({CH2CO}-[4Pal]Y(Carboxymethyl)D[Phe(3-Me)][Phe(3-F)][Bip]Y(Carboxymethyl)[Orn][dL][Dab][Cha][Val(3-OH)]SC[Dab][Aun]-OH; thioether N-14) | 0.0129
